Legend:
[1] = target: T1, GB1 (K28H/Q32H, diHis GB1) (Streptococcus sp. 'group G', UniProt P06654, K254H/Q258H); assay: NMR titration; PCS of the IDA-Co2+ complex; type: binding
T1 construct: gene spg; GB1

[2] = target: T1, GB1 (K28H/Q32H, diHis GB1); assay: NMR (Kd measurement; PCS of the NTA-Co2+ complex); type: binding

T1 sequence (P06654 228-282 K254H/Q258H limits assumed): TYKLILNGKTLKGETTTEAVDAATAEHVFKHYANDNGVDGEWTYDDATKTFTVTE

| SMILES | Kd [1] | Kd [2] |
| --- | --- | --- |
| O=C(O)CNCC(=O)O [IDA-Co2+, iminodiacetic acid] | < 212 µM | – |
| O=C(O)CN(CC(=O)O)CC(=O)O [NTA-Co2+, nitrilotriacetic acid] | – | 128 µM |

Source: PMC10032564, “Ligand-Capped Cobalt(II) Multiplies the Value of the Double-Histidine Motif for PCS NMR Studies” (Journal of the American Chemical Society, 2023)
